How the values were obtained:
Assay type in all cases: in vivo
[1] = system: barnyardgrass (Echinochloa crus-galli); test: Test A pre-/postemergence greenhouse test
Source text: (§1) Seeds of plant species selected from barnyardgrass (Echinochloa crus-galli), kochia (Kochia scoparia), ragweed (common ragweed, Ambrosia elatior), ryegrass, Italian (Lolium multiflorum), foxtail, giant (Setaria faberii), foxtail, green (Setaria viridis) and pigweed (Amaranthus retroflexus) were planted into a blend of loam soil and sand and treated preemergence with a directed soil spray using test chemicals formulated in a non-phytotoxic solvent mixture which included a surfactant.
(§2) At the same time, plants selected from these weed species and also wheat (Triticum aestivum), corn (Zea mays), blackgrass (Alopecurus myosuroides) and galium (catchweed bedstraw, Galium aparine) were planted in pots containing the same blend of loam soil and sand and treated with postemergence applications of test chemicals formulated in the same manner. Plants ranged in height from 2 to 10 cm and were in the one- to two-leaf stage for the postemergence treatment. Treated plants and untreated controls were maintained in a greenhouse for approximately 10 d, after which time all treated plants were compared to untreated controls and visually evaluated for injury. Plant response ratings, summarized in Table A, are based on a 0 to 100 scale where 0 is no effect and 100 is complete control. A dash (-) response means no test result.

kochia (Kochia scoparia) = test: Test A pre-/postemergence greenhouse test
Source text: as §1, §2

[2] = system: pigweed (Amaranthus retroflexus); test: Test A pre-/postemergence greenhouse test
Source text: as §1, §2

[3] = system: ragweed (common ragweed, Ambrosia elatior); test: Test A pre-/postemergence greenhouse test
Source text: as §1, §2

[4] = system: ryegrass, Italian (Lolium multiflorum); test: Test A pre-/postemergence greenhouse test
Source text: as §1, §2

[5] = system: barnyardgrass (Echinochloa crus-galli); test: Test B flooded paddy test; conditions: Flood, 250 g ai/ha
Procedure: (§3) Plant species in the flooded paddy test selected from rice (Oryza sativa), sedge, umbrella (small-flower umbrella sedge, Cyperus difformis), duck salad (Heteranthera limosa) and barnyardgrass (Echinochloa crus-galli) were grown to the 2-leaf stage for testing. At time of treatment, test pots were flooded to 3 cm above the soil surface, treated by application of test compounds directly to the paddy water, and then maintained at that water depth for the duration of the test. Treated plants and controls were maintained in a greenhouse for 13 to 15 d, after which time all species were compared to controls and visually evaluated. Plant response ratings, summarized in Table B, are based on a scale of 0 to 100 where 0 is no effect and 100 is complete control. A dash (-) response means no test result.

[6] = system: duck salad (Heteranthera limosa); test: Test B flooded paddy test; conditions: Flood, 250 g ai/ha, Ducksalad
Procedure: as §3

rice (Oryza sativa) = test: Test B flooded paddy test; conditions: Flood, 250 g ai/ha
Procedure: as §3

[7] = system: sedge, umbrella (small-flower umbrella sedge, Cyperus difformis); test: Test B flooded paddy test; conditions: Flood, 250 g ai/ha
Procedure: as §3

[8] = system: barnyardgrass (Echinochloa crus-galli); test: Test C flooded paddy test; conditions: Flood, scale 0 to 100
Source text: as §3, with “consisted of” for “selected from”, “(transplanted and water seeded, Oryza” for “(Oryza”, “ducksalad” for “duck salad”, “limosa), Bulrush, Japanese (Scirpus juncoides)” for “limosa)”, “crus-galli)” for “crus-galli) were”, “C” for “B,”

[9] = system: ducksalad (Heteranthera limosa); test: Test C flooded paddy test; conditions: Flood, scale 0 to 100
Source text: as §3, with “consisted of” for “selected from”, “(transplanted and water seeded, Oryza” for “(Oryza”, “ducksalad” for “duck salad”, “limosa), Bulrush, Japanese (Scirpus juncoides)” for “limosa)”, “crus-galli)” for “crus-galli) were”, “C” for “B,”

[10] = system: rice (transplanted and water seeded, Oryza sativa); test: Test C flooded paddy test; conditions: Flood, scale 0 to 100
Source text: as §3, with “consisted of” for “selected from”, “(transplanted and water seeded, Oryza” for “(Oryza”, “ducksalad” for “duck salad”, “limosa), Bulrush, Japanese (Scirpus juncoides)” for “limosa)”, “crus-galli)” for “crus-galli) were”, “C” for “B,”

[11] = system: sedge, umbrella (small-flower umbrella sedge, Cyperus difformis); test: Test C flooded paddy test; conditions: Flood, scale 0 to 100
Source text: as §3, with “consisted of” for “selected from”, “(transplanted and water seeded, Oryza” for “(Oryza”, “ducksalad” for “duck salad”, “limosa), Bulrush, Japanese (Scirpus juncoides)” for “limosa)”, “crus-galli)” for “crus-galli) were”, “C” for “B,”

SMILES: Cc1ccc2ccc(C)c(-c3c(O)c(Cl)nn(C)c3=O)c2c1 [Cpd. No. 20, 6-chloro-4-(2,7-dimethyl-1-naphthalenyl)-5-hydroxy-2-methyl-3(2H)-pyridazinone]
- Plant response rating (0 to 100 scale) ([1]; Postemergence, 31 g ai/ha): 80
- Plant response rating (0 to 100 scale) ([1]; Postemergence, 125 g ai/ha): 100
- Plant response rating (0 to 100 scale) ([1]; Preemergence, 31 g ai/ha): 70
- Plant response rating (0 to 100 scale) ([1]; Preemergence, 125 g ai/ha): 100
- Plant response rating (0 to 100 scale) (kochia (Kochia scoparia); Postemergence, 31 g ai/ha): 70
- Plant response rating (0 to 100 scale) (kochia (Kochia scoparia); Postemergence, 125 g ai/ha): 90
- Plant response rating (0 to 100 scale) (kochia (Kochia scoparia); Preemergence, 31 g ai/ha): 30
- Plant response rating (0 to 100 scale) (kochia (Kochia scoparia); Preemergence, 125 g ai/ha): 90
- Plant response rating (0 to 100 scale) ([2]; Postemergence, 31 g ai/ha): 90
- Plant response rating (0 to 100 scale) ([2]; Postemergence, 125 g ai/ha): 100
- Plant response rating (0 to 100 scale) ([2]; Preemergence, 31 g ai/ha): 100
- Plant response rating (0 to 100 scale) ([2]; Preemergence, 125 g ai/ha): 100
- Plant response rating (0 to 100 scale) ([3]; Postemergence, 31 g ai/ha): 90
- Plant response rating (0 to 100 scale) ([3]; Postemergence, 125 g ai/ha): 90
- Plant response rating (0 to 100 scale) ([3]; Preemergence, 31 g ai/ha): 20
- Plant response rating (0 to 100 scale) ([3]; Preemergence, 125 g ai/ha): 90
- Plant response rating (0 to 100 scale) ([4]; Postemergence, 31 g ai/ha): 90
- Plant response rating (0 to 100 scale) ([4]; Postemergence, 125 g ai/ha): 100
- Plant response rating (0 to 100 scale) ([4]; Preemergence, 31 g ai/ha): 90
- Plant response rating (0 to 100 scale) ([4]; Preemergence, 125 g ai/ha): 100
- Plant response rating (0 to 100 scale) [5]: 25
- Plant response rating (0 to 100 scale) [6]: 100
- Plant response rating (0 to 100 scale) (rice (Oryza sativa)): 15
- Plant response rating (0 to 100 scale) [7]: 90
- Plant response rating, Barnyardgrass ([8]; 31 g ai/ha): 0
- Plant response rating, Barnyardgrass ([8]; 62 g ai/ha): 0
- Plant response rating, Barnyardgrass ([8]; 125 g ai/ha): 0
- Plant response rating, Barnyardgrass ([8]; 250 g ai/ha): 20
- Plant response rating, Ducksalad ([9]; 31 g ai/ha): 0
- Plant response rating, Ducksalad ([9]; 62 g ai/ha): 30
- Plant response rating, Ducksalad ([9]; 125 g ai/ha): 70
- Plant response rating, Ducksalad ([9]; 250 g ai/ha): 85
- Plant response rating, Rice, Transplanted ([10]; 31 g ai/ha): 0
- Plant response rating, Rice, Water Seeded ([10]; 31 g ai/ha): 0
- Plant response rating, Rice, Transplanted ([10]; 62 g ai/ha): 0
- Plant response rating, Rice, Water Seeded ([10]; 62 g ai/ha): 0
- Plant response rating, Rice, Transplanted ([10]; 125 g ai/ha): 0
- Plant response rating, Rice, Water Seeded ([10]; 125 g ai/ha): 0
- Plant response rating, Rice, Transplanted ([10]; 250 g ai/ha): 0
- Plant response rating, Rice, Water Seeded ([10]; 250 g ai/ha): 0
- Plant response rating, Sedge, Umbrella ([11]; 31 g ai/ha): 0
- Plant response rating, Sedge, Umbrella ([11]; 62 g ai/ha): 0
- Plant response rating, Sedge, Umbrella ([11]; 125 g ai/ha): 50
- Plant response rating, Sedge, Umbrella ([11]; 250 g ai/ha): 70

SMILES: Cc1ccc2ccc(F)cc2c1-c1c(O)c(Cl)nn(C)c1=O [Cpd. No. 21]
- Plant response rating (0 to 100 scale) ([1]; Postemergence, 31 g ai/ha): 80
- Plant response rating (0 to 100 scale) ([1]; Postemergence, 125 g ai/ha): 90
- Plant response rating (0 to 100 scale) ([1]; Preemergence, 31 g ai/ha): 90
- Plant response rating (0 to 100 scale) ([1]; Preemergence, 125 g ai/ha): 100
- Plant response rating (0 to 100 scale) (kochia (Kochia scoparia); Postemergence, 31 g ai/ha): 80
- Plant response rating (0 to 100 scale) (kochia (Kochia scoparia); Postemergence, 125 g ai/ha): 90
- Plant response rating (0 to 100 scale) (kochia (Kochia scoparia); Preemergence, 31 g ai/ha): 50
- Plant response rating (0 to 100 scale) (kochia (Kochia scoparia); Preemergence, 125 g ai/ha): 100
- Plant response rating (0 to 100 scale) ([2]; Postemergence, 31 g ai/ha): 100
- Plant response rating (0 to 100 scale) ([2]; Postemergence, 125 g ai/ha): 100
- Plant response rating (0 to 100 scale) ([2]; Preemergence, 31 g ai/ha): 100
- Plant response rating (0 to 100 scale) ([2]; Preemergence, 125 g ai/ha): 100
- Plant response rating (0 to 100 scale) ([3]; Postemergence, 31 g ai/ha): 100
- Plant response rating (0 to 100 scale) ([3]; Postemergence, 125 g ai/ha): 100
- Plant response rating (0 to 100 scale) ([3]; Preemergence, 31 g ai/ha): 100
- Plant response rating (0 to 100 scale) ([3]; Preemergence, 125 g ai/ha): 100
- Plant response rating (0 to 100 scale) ([4]; Postemergence, 31 g ai/ha): 90
- Plant response rating (0 to 100 scale) ([4]; Postemergence, 125 g ai/ha): 100
- Plant response rating (0 to 100 scale) ([4]; Preemergence, 31 g ai/ha): 80
- Plant response rating (0 to 100 scale) ([4]; Preemergence, 125 g ai/ha): 100
- Plant response rating (0 to 100 scale) [5]: 80
- Plant response rating (0 to 100 scale) [6]: 90
- Plant response rating (0 to 100 scale) (rice (Oryza sativa)): 35
- Plant response rating (0 to 100 scale) [7]: 90
- Plant response rating, Barnyardgrass ([8]; 31 g ai/ha): 0
- Plant response rating, Barnyardgrass ([8]; 62 g ai/ha): 0
- Plant response rating, Barnyardgrass ([8]; 125 g ai/ha): 30
- Plant response rating, Barnyardgrass ([8]; 250 g ai/ha): 65
- Plant response rating, Ducksalad ([9]; 31 g ai/ha): 0
- Plant response rating, Ducksalad ([9]; 62 g ai/ha): 30
- Plant response rating, Ducksalad ([9]; 125 g ai/ha): 80
- Plant response rating, Ducksalad ([9]; 250 g ai/ha): 85
- Plant response rating, Rice, Transplanted ([10]; 31 g ai/ha): 0
- Plant response rating, Rice, Transplanted ([10]; 62 g ai/ha): 0
- Plant response rating, Rice, Transplanted ([10]; 125 g ai/ha): 0
- Plant response rating, Rice, Transplanted ([10]; 250 g ai/ha): 15
- Plant response rating, Sedge, Umbrella ([11]; 31 g ai/ha): 0
- Plant response rating, Sedge, Umbrella ([11]; 62 g ai/ha): 0
- Plant response rating, Sedge, Umbrella ([11]; 125 g ai/ha): 0
- Plant response rating, Sedge, Umbrella ([11]; 250 g ai/ha): 0

SMILES: Cc1ccc2ccc(Cl)cc2c1-c1c(O)c(Cl)nn(C)c1=O [Cpd. No. 22]
- Plant response rating (0 to 100 scale) ([1]; Postemergence, 31 g ai/ha): 100
- Plant response rating (0 to 100 scale) ([1]; Postemergence, 125 g ai/ha): 100
- Plant response rating (0 to 100 scale) ([1]; Preemergence, 31 g ai/ha): 100
- Plant response rating (0 to 100 scale) ([1]; Preemergence, 125 g ai/ha): 100
- Plant response rating (0 to 100 scale) (kochia (Kochia scoparia); Postemergence, 31 g ai/ha): 60
- Plant response rating (0 to 100 scale) (kochia (Kochia scoparia); Postemergence, 125 g ai/ha): 100
- Plant response rating (0 to 100 scale) (kochia (Kochia scoparia); Preemergence, 31 g ai/ha): 10
- Plant response rating (0 to 100 scale) (kochia (Kochia scoparia); Preemergence, 125 g ai/ha): 90
- Plant response rating (0 to 100 scale) ([2]; Postemergence, 31 g ai/ha): 100
- Plant response rating (0 to 100 scale) ([2]; Postemergence, 125 g ai/ha): 100
- Plant response rating (0 to 100 scale) ([2]; Preemergence, 31 g ai/ha): 100
- Plant response rating (0 to 100 scale) ([2]; Preemergence, 125 g ai/ha): 100
- Plant response rating (0 to 100 scale) ([3]; Postemergence, 31 g ai/ha): 100
- Plant response rating (0 to 100 scale) ([3]; Postemergence, 125 g ai/ha): 100
- Plant response rating (0 to 100 scale) ([3]; Preemergence, 31 g ai/ha): 100
- Plant response rating (0 to 100 scale) ([3]; Preemergence, 125 g ai/ha): 100
- Plant response rating (0 to 100 scale) ([4]; Postemergence, 31 g ai/ha): 100
- Plant response rating (0 to 100 scale) ([4]; Postemergence, 125 g ai/ha): 100
- Plant response rating (0 to 100 scale) ([4]; Preemergence, 31 g ai/ha): 90
- Plant response rating (0 to 100 scale) ([4]; Preemergence, 125 g ai/ha): 100
- Plant response rating (0 to 100 scale) [5]: 40
- Plant response rating (0 to 100 scale) [6]: 90
- Plant response rating (0 to 100 scale) (rice (Oryza sativa)): 60
- Plant response rating (0 to 100 scale) [7]: 85

— US12435044B2, “Pyridazinone herbicides and pyridazinone intermediates used to prepare a herbicide” (FMC Corporation, priority 2018, dated 2025)
